Test results taken from the supplement of paper PMC13380429.

How the values were obtained:
Conditions in all cases: 72 h
Caco-2 [1] = assay: cell viability relative to DMSO; higher = less toxic
Calu-3 [2] = assay: as above
HepG2 [3] = assay: as above
U2OS [4] = assay: as above
Vero E6 [5] = assay: as above
Caco-2 [6] = assay: relative viability EC50 (midpoint between 100% and the lowest measured viability); higher = less toxic
Calu-3 [7] = assay: as above
HepG2 [8] = assay: as above
U2OS [9] = assay: as above
Vero E6 [10] = assay: as above
Caco-2 [11] = assay: drug sensitivity score (DSS) for viability; higher = more toxic; extreme values may be limits of the assay
Calu-3 [12] = assay: as above
HepG2 [13] = assay: as above
U2OS [14] = assay: as above
Vero E6 [15] = assay: as above

Structure (SMILES)	cell viability (Caco-2 [1]; 1 nM)	cell viability (Caco-2 [1]; 10 nM)	cell viability (Caco-2 [1]; 100 nM)	cell viability (Caco-2 [1]; 1000 nM)	cell viability (Caco-2 [1]; 10000 nM)	cell viability (Calu-3 [2]; 1 nM)	cell viability (Calu-3 [2]; 10 nM)	cell viability (Calu-3 [2]; 100 nM)	cell viability (Calu-3 [2]; 1000 nM)	cell viability (Calu-3 [2]; 10000 nM)	cell viability (HepG2 [3]; 1 nM)	cell viability (HepG2 [3]; 10 nM)	cell viability (HepG2 [3]; 100 nM)	cell viability (HepG2 [3]; 1000 nM)	cell viability (HepG2 [3]; 10000 nM)	cell viability (U2OS [4]; 1 nM)	cell viability (U2OS [4]; 10 nM)	cell viability (U2OS [4]; 100 nM)	cell viability (U2OS [4]; 1000 nM)	cell viability (U2OS [4]; 10000 nM)	cell viability (Vero E6 [5]; 1 nM)	cell viability (Vero E6 [5]; 10 nM)	cell viability (Vero E6 [5]; 100 nM)	cell viability (Vero E6 [5]; 1000 nM)	cell viability (Vero E6 [5]; 10000 nM)	relative viability EC50 (Caco-2 [6])	relative viability EC50 (Calu-3 [7])	relative viability EC50 (HepG2 [8])	relative viability EC50 (U2OS [9])	relative viability EC50 (Vero E6 [10])	drug sensitivity score (Caco-2 [11])	drug sensitivity score (Calu-3 [12])	drug sensitivity score (HepG2 [13])	drug sensitivity score (U2OS [14])	drug sensitivity score (Vero E6 [15])
C[C@@H]1CN([C@H]2CC[C@](C#N)(c3ccc(F)cc3)CC2)CC[C@]1(C(=O)O)c1ccccc1 [levocabastine]	103%	104%	108%	99.5%	99.3%	94.2%	99.3%	109%	99.4%	96.2%	91.5%	99.6%	93.6%	93.7%	94.2%	97.8%	98%	104%	98%	105%	102%	106%	100%	104%	100%	> 10 µM	> 10 µM	> 10 µM	> 10 µM	> 10 µM	0	0	0	0	0
O=C(O[C@H]1CN2CCC1CC2)N(Cc1cc(F)c(F)c(F)c1)c1cccc(F)c1 [tarafenacin]	102%	96.5%	91.3%	104%	95.7%	96.4%	106%	106%	113%	96.2%	115%	106%	108%	96.5%	99.3%	95.7%	102%	100%	103%	91.3%	99.7%	99.6%	107%	98.7%	90.2%	> 10 µM	> 10 µM	> 10 µM	> 10 µM	> 10 µM	0	0	0	0	0
COc1ccccc1-c1c[nH]c2ncc(-c3cncc(C(=O)N(C)C)c3)cc12 [PPY-A]	88.4%	119%	102%	106%	102%	108%	96.4%	95.3%	115%	126%	120%	96.9%	92.1%	114%	99.7%	95.4%	112%	101%	101%	96.4%	95.4%	100%	100%	101%	112%	> 10 µM	> 10 µM	> 10 µM	> 10 µM	> 10 µM	0	0	0	0	0
Cc1cc(C)c2c(N)c(C(=O)NCc3ccc(Cl)cc3)sc2n1	95.7%	91.5%	107%	89.5%	108%	101%	92.2%	97%	108%	96.3%	102%	105%	101%	91.6%	98.5%	98.9%	103%	99.7%	102%	105%	101%	91.8%	108%	90.4%	105%	> 10 µM	> 10 µM	> 10 µM	> 10 µM	> 10 µM	0	0	0	0	0
O=C(NNc1ccccc1)c1ccncc1 [plurisin-1]	106%	106%	105%	91.6%	101%	97.9%	96.6%	93.2%	103%	106%	110%	109%	104%	114%	77.8%	103%	96.3%	101%	99.9%	99.6%	102%	108%	106%	96.7%	95.4%	> 10 µM	> 10 µM	> 10 µM	> 10 µM	> 10 µM	0	0	0.4	0	0
O=c1n(CCCN2CCN(c3cccc(Cl)c3)CC2)nc2ccccn12 [trazodone]	99.5%	98.2%	97.5%	89.6%	96.4%	105%	92.4%	95.1%	79.7%	99.3%	95.8%	99%	94.1%	108%	91%	102%	104%	98.5%	97.2%	98.3%	98.8%	101%	95.6%	103%	101%	> 10 µM	> 10 µM	> 10 µM	> 10 µM	> 10 µM	0	0	0	0	0
CCc1cc2c(s1)-n1c(C)nnc1CN=C2c1ccccc1Cl [etizolam]	102%	103%	96.4%	94.3%	99.2%	101%	93.2%	105%	96.4%	105%	104%	106%	106%	93.1%	108%	98.6%	102%	98.8%	97.3%	96.5%	104%	106%	105%	99.8%	99.6%	> 10 µM	> 10 µM	> 10 µM	> 10 µM	> 10 µM	0	0	0	0	0
